Results: patent publication US12655116B2, “Substituted isophthalic acid diamides” (Bayer Aktiengesellschaft, priority 2020, dated 2026)

Tests used:
ABUTH [1] = test: Pre-emergence herbicidal action against ABUTH; type: in vivo, Abutilon theophrasti; details: Abutilon theophrasti, 504 h
Outline: (§1)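 Visual rating at 3 weeks vs untreated pots; 0–100% scale, 100% = plants died. Treatment: aqueous WP/EC spray onto covering soil, 600–800 l/ha, 0.2% wetter, seeds in sandy loam.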

ALOMY = test: Pre-emergence herbicidal action against ALOMY; type: in vivo, Alopecurus myosuroides; details: Alopecurus myosuroides, 504 h; 80 g/ha, pre-emergence, scored visually after 3 weeks vs untreated controls (100% = plants have died, 0% = like control plants)
Outline: as §1

AMARE [2] = test: Pre-emergence herbicidal action against AMARE; type: in vivo, Amaranthus retroflexus; details: Amaranthus retroflexus, 504 h, scored visually after 3 weeks vs untreated controls, 100% = plants have died, 0% = like control plants
Outline: as §1

AVEFA [3] = test: Pre-emergence herbicidal action against AVEFA; type: in vivo, Avena fatua; details: Avena fatua, 504 h; 80 g/ha, pre-emergence
Outline: as §1

ECHCG [4] = test: Pre-emergence herbicidal action against ECHCG; type: in vivo, Echinochloa crus-galli; details: Echinochloa crus-galli, 504 h, 80 g/ha
Outline: as §1

MATIN [5] = test: Pre-emergence herbicidal action against MATIN; type: in vivo, Matricaria inodora; details: Tripleurospermum inodorum, 504 h
Outline: as §1

PHBPU [6] = test: Pre-emergence herbicidal action against PHBPU; type: in vivo, Pharbitis purpurea; details: Ipomoea purpurea, 504 h, dosage 80 g/ha
Outline: as §1

SETVI [7] = test: Pre-emergence herbicidal action against SETVI; type: in vivo, Setaria viridis; details: Setaria viridis, 504 h, dosage 80 g/ha
Outline: as §1

STEME [8] = test: Pre-emergence herbicidal action against STEME; type: in vivo, Stellaria media; details: Stellaria media, 504 h
Outline: as §1

VIOTR [9] = test: Pre-emergence herbicidal action against VIOTR; type: in vivo, Viola tricolor; details: Viola tricolor, 504 h, dosage 80 g/ha
Outline: as §1

DIGSA [10] = test: Pre-emergence herbicidal action against DIGSA; type: in vivo, Digitaria sanguinalis; details: Digitaria sanguinalis, 504 h
Outline: as §1

ABUTH [11] = test: Post-emergence herbicidal action against ABUTH; type: in vivo, Abutilon theophrasti; details: Abutilon theophrasti, 504 h, visual assessment about 3 weeks after treatment vs untreated controls
Outline: (§2)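 Weeds in sandy loam soil received a post-emergence spray at the one-leaf stage. Compounds were applied as WP or EC in water, 600 to 800 l/ha, with 0.2% wetting agent. Activity in % was judged visually after roughly 3 weeks against untreated plants.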

AMARE [12] = test: Post-emergence herbicidal action against AMARE; type: in vivo, Amaranthus retroflexus; details: Amaranthus retroflexus, 504 h, 20 g/ha, visual assessment about 3 weeks after treatment, 100% = plants have died, 0% = like control plants
Outline: as §2

AVEFA [13] = test: Post-emergence herbicidal action against AVEFA; type: in vivo, Avena fatua; details: Avena fatua, 504 h, 20 g/ha, visual assessment about 3 weeks after treatment, 100% = plants have died, 0% = like control plants
Outline: as §2

ECHCG [14] = test: Post-emergence herbicidal action against ECHCG; type: in vivo, Echinochloa crus-galli; details: Echinochloa crus-galli, 504 h, dosage 20 g/ha
Outline: as §2

MATIN [15] = test: Post-emergence herbicidal action against MATIN; type: in vivo, Matricaria inodora; details: Tripleurospermum inodorum, 504 h
Outline: as §2

PHBPU [16] = test: Post-emergence herbicidal action against PHBPU; type: in vivo, Pharbitis purpurea; details: Ipomoea purpurea, 504 h, dosage 20 g/ha
Outline: as §2

SETVI [17] = test: Post-emergence herbicidal action against SETVI; type: in vivo, Setaria viridis; details: Setaria viridis, 504 h, dosage 20 g/ha
Outline: as §2

STEME [18] = test: Post-emergence herbicidal action against STEME; type: in vivo, Stellaria media; details: Stellaria media, 504 h
Description: Seeds of monocotyledonous and dicotyledonous weed and crop plants are laid out in sandy loam soil in wood-fiber pots, covered with soil and cultivated in a greenhouse under good growth conditions. 2 to 3 weeks after sowing, the test plants are treated at the one-leaf stage. The compounds of the invention, formulated in the form of wettable powders (WP) or as emulsion concentrates (EC), are then sprayed onto the green parts of the plants in the form of an aqueous suspension or emulsion at a water application rate equivalent to 600 to 800 l/ha, with addition of 0.2% wetting agent. After the test plants have been left to stand in the greenhouse under optimal growth conditions for about 3 weeks, the action of the preparations is assessed visually in comparison to untreated controls (herbicidal action in percent (%): 100% activity=the plants have died, 0% activity=like control plants). […] The tables below illustrate, in an illustrative manner, the post-emergence herbicidal action of the compounds of the invention, the herbicidal activity being stated in percent.

VERPE = test: Post-emergence herbicidal action against VERPE; type: in vivo, Veronica persica; details: Veronica persica, 504 h
Outline: as §2

VIOTR [19] = test: Post-emergence herbicidal action against VIOTR; type: in vivo, Viola tricolor; details: Viola tricolor, 504 h, 20 g/ha
Outline: as §2

DIGSA [20] = test: Post-emergence herbicidal action against DIGSA; type: in vivo, Digitaria sanguinalis; details: Digitaria sanguinalis, 504 h
Outline: as §2

Compound: CNC(=O)c1c(C(F)F)ccc(C(=O)Nc2nnnn2C)c1C [Example 1-44]
- pest or weed control at 80 g/ha (ABUTH [1]; 80 g/ha, scored visually after 3 weeks vs untreated controls (100% = plants have died, 0% = like control plants)): 100%
- pest or weed control at 20 g/ha (ABUTH [1]; dosage 20 g/ha, scored visually after 3 weeks vs untreated controls, 100% = plants have died, 0% = like control plants, read-out: Pre-emergence action against ABUTH (herbicidal activity in percent)): 100%
- pest or weed control at 80 g/ha (ALOMY): 90%
- pest or weed control at 20 g/ha (AMARE [2]; 20 g/ha): 100%
- pest or weed control at 80 g/ha (AMARE [2]; 80 g/ha): 100%
- pest or weed control at 80 g/ha (AVEFA [3]): 90%
- pest or weed control at 80 g/ha (ECHCG [4]): 90%
- pest or weed control at 20 g/ha (MATIN [5]; dosage 20 g/ha): 90%
- pest or weed control at 80 g/ha (MATIN [5]; dosage 80 g/ha): 90%
- pest or weed control at 80 g/ha (PHBPU [6]): 80%
- pest or weed control at 80 g/ha (SETVI [7]): 100%
- pest or weed control at 20 g/ha (STEME [8]; dosage 20 g/ha): 90%
- pest or weed control at 80 g/ha (STEME [8]; dosage 80 g/ha): 90%
- pest or weed control at 80 g/ha (VIOTR [9]): 90%
- pest or weed control at 20 g/ha (DIGSA [10]; dosage 20 g/ha): 90%
- pest or weed control at 80 g/ha (DIGSA [10]; dosage 80 g/ha): 100%
- pest or weed control at 5 g/ha (ABUTH [11]; dosage 5 g/ha): 90%
- pest or weed control at 20 g/ha (ABUTH [11]; dosage 20 g/ha): 100%
- pest or weed control at 20 g/ha (AMARE [12]): 100%
- pest or weed control at 20 g/ha (AVEFA [13]): 80%
- pest or weed control at 20 g/ha (ECHCG [14]): 80%
- pest or weed control at 5 g/ha (MATIN [15]; dosage 5 g/ha): 80%
- pest or weed control at 20 g/ha (MATIN [15]; dosage 20 g/ha): 90%
- pest or weed control at 20 g/ha (PHBPU [16]): 80%
- pest or weed control at 20 g/ha (SETVI [17]): 90%
- pest or weed control at 20 g/ha (STEME [18]; 20 g/ha): 80%
- pest or weed control at 5 g/ha (STEME [18]; dosage 5 g/ha): 80%
- pest or weed control at 5 g/ha (VERPE; 5 g/ha): 80%
- pest or weed control at 20 g/ha (VERPE; 20 g/ha): 100%
- pest or weed control at 20 g/ha (VIOTR [19]): 80%
- pest or weed control at 5 g/ha (DIGSA [20]; 5 g/ha): 80%
- pest or weed control at 20 g/ha (DIGSA [20]; 20 g/ha): 90%
